The results in this text go back to paper PMC8373063 (2021).

Experiment [1] relates to RNA Seq6 (RNA, single strand) UGAAGGAAGGU
Description: fluorescence polarization. The note with it: 100 mM NaCl; 20 mM HEPES, 25 °C, 0.5 μM compound. On the technique in general: In fluorescence polarisation assays a small probe gives low polarisation when free and higher when bound to something large.

Experiment [2] deals with RNA Seq4 (RNA, single strand) AAGAAGGAAGGUGC
Description: fluorescence polarization. The settings on record: 100 mM NaCl; 20 mM HEPES, 25 °C, 0.5 μM compound.

The test system of experiment [3] is DNA Seq6 (DNA, single strand) TGAAGGAAGGT
Description: fluorescence polarization. The note with it: 100 mM NaCl, 1 mM MgCl2; 20 mM HEPES, 25 °C, 0.5 μM compound.

The test system is the same in experiment [4]. In words: fluorescence polarization. The note with it: 100 mM NaCl, 1 mM MgCl2; 20 mM HEPES, 25 °C, 0.5 μM compound. The source holds these as a separate data set.
The test system of experiment [5] is RNA Seq6 (RNA, single strand) UGAAGGAAGGU
Description: fluorescence polarization. The settings on record: 100 mM NaCl; 20 mM HEPES, 25 °C, 0.5 μM compound. The source holds these as a separate data set.

The test system of experiment [6] is DNA Seq6 (DNA, single strand) TGAAGGAAGGT
Description: competitive fluorescence polarization. The note with it: 100 mM NaCl, 1 mM MgCl2, 20 mM HEPES, tracer 0.5 μM SMN-C2 displaced from 25 μM DNA Seq6.

Experiment [7] concerns RNA Seq4 (immobilised) (RNA, single strand) AAGAAGGAAGGUGC
Description: SPR, immobilised RNA. The settings on record: running buffer not shown; SMN-C5 up to 40 μM. (SPR reads the build-up and loss of mass on a sensor chip optically.)

Turning to `Cc1cn2cc(-c3cc4ccc(N5CCN[C@@H](C)C5)cc4oc3=O)nc2c(C)n1`, the values for the Kd in experiment [1], in experiment [2] and in experiment [3] were 18.5 ± 5.4 µM, 25.4 ± 7.3 µM and 2.9 ± 0.3 µM, respectively.

For `Cc1c(-c2cccc(Cl)c2)c(=O)oc2cc(N3CCN(C)CC3)ccc12`, the Kd in experiment [4] and in experiment [5] was > >100 μM each time.

On to `COc1cn2cc(-c3cc4ccc(N5CCNCC5)cc4oc3=O)nc2cn1`, for which the equilibrium dissociation constant (Kd) in experiment [3] was determined as 1.4 ± 0.2 µM; in experiment [5], 11.4 ± 0.7 µM.

Consider `CN1CCN(c2ccc3cc(-c4ccccc4Cl)c(=O)oc3c2)CC1`, for which the Kd is greater than 100 µM in experiment [3] and > >100 μM in experiment [5].

In the case of `O=c1oc2cc(N3CCNCC3)ccc2cc1-c1cn2ccccc2n1`, the Kd in experiment [4] was 2.8 ± 0.5 µM; in experiment [5], 14.5 ± 2.3 µM.

As to `CN1CCN(c2cc(F)c3cc(-c4ccc(Cl)cc4)c(=O)oc3c2)CC1`, the values for the Kd in experiment [4] and in experiment [5] were 9.9 ± 0.9 µM and 30.9 ± 6.7 µM, respectively.

With `Cc1cn2cc(-c3cc4ccc(N5CCN(CCNC(=O)OC(C)(C)C)[C@@H](C)C5)cc4oc3=O)nc2c(C)n1`, the results for the Kd in experiment [4], in experiment [2] and in experiment [5] were 4.0 ± 0.3 µM, 37.5 ± 14.0 µM and 51.2 ± 4.9 µM, respectively.

Take `CN1CCN(c2ccc3cc(-c4cccc(Cl)c4)c(=O)oc3c2)CC1`: the Kd in experiment [4] was 13.9 ± 1.1 µM; in experiment [5], 35.9 ± 14.8 µM.

With `CN1CCN(c2cc(F)c3cc(-c4cccc(Cl)c4)c(=O)oc3c2)CC1`, the Kd was 18.7 ± 4.0 µM in experiment [4] and 32.8 ± 5.6 µM in experiment [5].

Take `Cc1cn2cc(-c3cc(=O)n4cc(N5CCN(C)CC5)ccc4n3)cc(F)c2n1`: in experiment [6], the “apparent Kd” value turned out to be 5.8 ± 2.5 µM. In experiment [7], the Kd was 8.0 µM.

Turning to `CN1CCN(c2ccc3cc(-c4ccc(Cl)cc4)c(=O)oc3c2)CC1`, the Kd in experiment [4] was found to be 8.2 ± 0.7 µM; in experiment [5] it was 30.6 ± 12.3 µM.

As to `Cc1c(-c2ccc(Cl)cc2)c(=O)oc2cc(N3CCN(C)CC3)ccc12`, the Kd in experiment [4] and in experiment [5] was > >100 μM each time.

The term Kd denotes the free concentration of one partner at which half of the binding sites on the other are occupied at equilibrium, for simple one-to-one binding. A high value points to weaker binding. Broadly, the apparent Kd is a dissociation constant that holds for the conditions of the assay.
